Measurements as given in paper PMC10999543, “Identification of kinase modulators as host-directed therapeutics against intracellular methicillin-resistant Staphylococcus aureus” (Frontiers in Cellular and Infection Microbiology, 2024).
Where two headings read alike, the source gives them in different places.

Legend:
[1] = system: intracellular MRSA; assay type: cell-based, Staphylococcus aureus; details: for %GFP+ rep 1 / z-scoreMRSA+ rep 1: replicate 1; for %GFP+ rep 2 / z-scoreMRSA+ rep 2: replicate 2; for %GFP+ rep 3 / z-scoreMRSA+ rep 3: replicate 3; for z-scoreMRSA+ mean: mean of 3 replicates; for %GFP+ rep 1: test concentration or dose not given here; for %GFP+ rep 2: test concentration or dose not given here; for %GFP+ rep 3: test concentration or dose not given here; for effect: test concentration or dose not given here; for z-scoreMRSA+ mean: test concentration or dose not given here; for z-scoreMRSA+ rep 1: test concentration or dose not given here; for z-scoreMRSA+ rep 2: test concentration or dose not given here; for z-scoreMRSA+ rep 3: test concentration or dose not given here
Outline: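 Values are z-scores: GFP-positive HeLa percentage and event count per well against plate statistics, minus the mean DMSO z-score. Wells deviating two-fold from controls were left out of plate means. Infection was at a mean MOI of 6.8, with an overnight compound exposure.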

[2] = system: HeLa cells; assay: Compound screen by flow cytometry: HeLa cell count as surrogate readout of cell viability (z-scoreHeLa); assay type: cell-based, human; note: test concentration or dose not given here
Outline: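 The viability surrogate was the count of fixed HeLa cells by flow cytometry, converted to z-scores against DMSO controls with values deviating two-fold excluded. Before counting, cells had been infected with MRSA for 1 h and cleared of extracellular bacteria with gentamicin. They were then exposed overnight to kinase inhibitors in triplicate.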

[3] = PKIS compound screen raw data, MRSA-infected HeLa cells
[4] = Yes/No: effect without cell death
[5] = compound screen, MRSA-infected HeLa cells
[6] = PKIS compound screen raw data, HeLa cell count, replicate 1
[7] = PKIS compound screen raw data, HeLa cell count, replicate 2
[8] = PKIS compound screen raw data, HeLa cell count, replicate 3
[9] = compound screen, HeLa cell count, mean of 3 replicates
[10] = compound screen, HeLa cell count, replicate 1
[11] = compound screen, HeLa cell count, replicate 2
[12] = compound screen, HeLa cell count, replicate 3
[13] = PKIS compound screen, Yes/No call
[14] = PKIS compounds raw data, MRSA-infected HeLa cells
[15] = PKIS compounds raw data, replicate 1, HeLa cell count
[16] = PKIS compounds raw data, replicate 2, HeLa cell count
[17] = PKIS compounds raw data, replicate 3, HeLa cell count

| SMILES | %GFP+ rep 1 [1, 3] | %GFP+ rep 2 [1, 3] | %GFP+ rep 3 [1, 3] | effect ([1]; Yes/No call from z-scoreMRSA+) | hit [1, 4] | z-scoreMRSA+ mean [1, 5] | z-scoreMRSA+ rep 1 [1, 5] | z-scoreMRSA+ rep 2 [1, 5] | z-scoreMRSA+ rep 3 [1, 5] | cell count rep 1 [2, 6] | cell count rep 2 [2, 7] | cell count rep 3 [2, 8] | cell death ([2]; Yes/No call from z-scoreHeLa) | z-scoreHeLa mean [2, 9] | z-scoreHeLa rep 1 [2, 10] | z-scoreHeLa rep 2 [2, 11] | z-scoreHeLa rep 3 [2, 12] | %GFP+ rep 1 [1, 14] | %GFP+ rep 2 [1, 14] | %GFP+ rep 3 [1, 14] | other results |
| --- | --- | --- | --- | --- | --- | --- | --- | --- | --- | --- | --- | --- | --- | --- | --- | --- | --- | --- | --- | --- | --- |
| COc1ccc(CNC(=O)NC2CCN(c3ccnc(Nc4cc(OC)c(OC)c(OC)c4)n3)C2)cc1 (stereo not shown) [GSK1379748A] | 25.5% | 23.4% | 23.0% | No | No | 0.16 | 0.05 | 0.19 | 0.24 | 5560 | 4556 | 5664 | No | 0.45 | 0.87 | 0.20 | 0.27 |  |  |  |  |
| COc1cc2c(Nc3ccc(NC(=O)c4ccccc4)cc3)ncnc2cc1OCCCN1CCOCC1 [GSK301329A] | 25.2% | 24.6% | 21.9% | No | No | 0.13 | -0.0173 | 0.48 | -0.09 |  |  |  |  |  |  |  |  |  |  |  | cell death [2]: No; cell count rep 1 ([2]; human): 4010; cell count rep 2 ([2]; human): 4052; cell count rep 3 ([2]; human): 5236; z-scoreHeLa mean ([2]; human): -0.15; z-scoreHeLa rep 1 ([2]; human): -0.25; z-scoreHeLa rep 2 ([2]; human): -0.19; z-scoreHeLa rep 3 ([2]; human): -0.00157 |
| CN(C)c1cc2c(Nc3ccc4c(cnn4Cc4ccccc4)c3)ncnc2cn1 [GW282974X] |  |  |  |  |  |  |  |  |  |  |  |  |  |  |  |  |  | 11.5% | 11.2% | 11.8% | effect [1, 13]: No; hit ([1]; PKIS compound screen, Yes/No call (effect without cell death)): No; z-scoreMRSA+ mean ([1]; PKIS compound screen): -0.84; z-scoreMRSA+ rep 1 ([1]; PKIS compound screen): -0.54; z-scoreMRSA+ rep 2 ([1]; PKIS compound screen): -0.77; z-scoreMRSA+ rep 3 ([1]; PKIS compound screen): -1.21; cell death [2, 13]: No; z-scoreHeLa mean ([2]; PKIS compound screen, mean of 3 replicates): 1.58; z-scoreHeLa rep 1 ([2]; PKIS compound screen, replicate 1): 0.95; z-scoreHeLa rep 2 ([2]; PKIS compound screen, replicate 2): 1.79; z-scoreHeLa rep 3 ([2]; PKIS compound screen, replicate 3): 2.01; cell count rep 1 [2, 15]: 5822; cell count rep 2 [2, 16]: 6633; cell count rep 3 [2, 17]: 11155 |
| Cc1cccc2c1NC(=O)C2=NNc1ccc(S(N)(=O)=O)cc1 [GW282536X] | 21.7% | 20.9% | 20.2% | No | No | -0.62 | -0.83 | -0.42 | -0.60 | 1823 | 2013 | 1046 | No | -2.08 | -1.82 | -1.76 | -2.65 |  |  |  |  |
| CCNC(=O)O[C@H]1CN[C@H](C#Cc2cc3ncnc(Nc4ccc(OCc5cccc(F)c5)c(Cl)c4)c3s2)C1 [GSK192082A] |  |  |  | Yes | Yes | -2.04 | -2.01 | -2.02 | -2.09 |  |  |  | No | -1.04 | -1.57 | -1.00 | -0.55 | 6.9% | 7.5% | 8.8% | cell count rep 1 [2, 15]: 3041; cell count rep 2 [2, 16]: 2947; cell count rep 3 [2, 17]: 5819 |
